Source: patent publication US5061714A, “Isoquinoline composition for the treatment of glaucoma or ocular hypertension” (priority 1989, dated 1991)
Where a name gives a salt, the structure may show the parent alone.

Assay: Acute toxicity test (LD50) in mice
Conditions: mouse, in vivo
Experimental: 4-(3-tert.-Butylamino-2-hydroxypropoxy)-2-methyl-1-isoquinolinone hydrochloride and 4-(3-tert.-butylamino-2-hydroxypropoxy)-1-isoquinolinonehydrochloride, respectively were administered to mice to determine the LD50 value.

For `CC(C)(C)NCC(O)COc1c[nH]c(=O)c2ccccc12` (centres unmarked) [4-(3-tert.-butylamino-2-hydroxypropoxy)-1-isoquinolinonehydrochloride], the LD50 (ip, intraperitoneal, female) was 367 mg/kg, the LD50 (ip, intraperitoneal, male) was 382 mg/kg and the LD50 (po, female) was 2470 mg/kg. For the same compound, the LD50 (po, male) was 2810 mg/kg.
With `Cl.Cn1cc(OCC(O)CNC(C)(C)C)c2ccccc2c1=O` (centres unmarked) [4-(3-tert.-butylamino-2-hydroxypropoxy)-2-methyl-1-isoquinolinone hydrochloride] the LD50 (ip, intraperitoneal, female) was 557 mg/kg, the LD50 (ip, intraperitoneal, male) was 578 mg/kg and the LD50 (po, female) was 1290 mg/kg. It also gave an LD50 (po, male) of 1390 mg/kg.
